Patent publication US9399194B2, “Methods for treating a liquid using draw solutions” (priority 2014, dated 2016)
Where “and” joins values, the source holds several entries; their conditions need not be identical. Identical values can stand only once.

Legend:
[1] = saturated NaCl solution; cited from earlier work
[2] = Forward osmosis flux experiments (FO mode) against pure water; conditions: about 30 wt % CHP-H+ or 0.9 mol/kg NaCl against pure water, identical membranes
Procedure: All flux experiments were conducted in “FO mode” with the membrane's active layer facing the feed solution. The process was allowed 1-5 minutes to equilibrate and the average of the next 10 minutes was reported as the “initial flux.”
Using identical membranes and test conditions, the water flux for CHP-H^+ was 10 kg/m^2 hr compared with 10 kg/m^2 hr for the NaCl solution.

[3] = Freezing point depression osmometry: maximum concentration and osmotic pressure; assay type: physicochemical; conditions: for maximum osmotic pressure (projected): full/high concentration, projected from dilute solution freezing point data
Procedure: (§1) House deionized (DI) water was used in all experiments. CHP was obtained from Alfa Aesar and used as received. All equipment was used in accordance with manufacturer specifications unless stated otherwise. Freezing point depression osmometry was performed using an Advanced Instruments, Inc. Model 3250 Osmometer. Viscosity measurements were made using the falling bob method with a Cambridge Applied Systems VL4100 viscometer.
The diamond symbols indicate molality of amine and ammonium ions. The square symbols indicate the total species molality including amines, ammonium ions, and carbonate species. […] There is strong evidence that as osmotic pressures increase, there are diminishing returns in terms of kinetics for osmotic flux. For any osmotic pressure over 370 atm, the osmotic pressure of a saturated NaCl solution is likely to be less important than solute and solution properties like diffusion and viscosity.
The maximum osmotic pressures of different tertiary amines were determined by osmometry.

[4] = Draw solution degassing monitored by freezing point osmometry; assay type: physicochemical; conditions: for temperature needed to degas: ambient atmospheric pressure, comparable kinetics
Description: To determine the relative performance of CHP and DMCA at different temperatures, draw solutions containing CHP or DMCA were recirculated through a segment of a heat exchanger featuring a high surface area honeycomb composition design with a temperature regulated fluid recirculated through the other path. Concentration data was collected with a freezing point osmometer by conventional techniques. Osmolality is an excellent predictor for the pressure needed to remove dissolved solids by filtration. Generally, 1 Osm/Kg corresponds to about 24.5 atm.
Upon addition of one atm of CO2 to the draw solution of Example 1, the oily, nonpolar CHP readily produced the corresponding polar ammonium bicarbonate acid-base salt. To test the degassing process, CHP-ammonium bicarbonate solutions were recirculated through a high surface area heat exchanger with a gear pump while the other loop of the heat exchanger was attached to a recirculating heat bath that was set to the desired temperature. The experiment progression was monitored with a freezing point osmometry. The degassing process was intended to reduce the solution osmotic pressure, reducing it to nothing or minimizing it for a low pressure RO treatment. The progress of the degassing reaction was measured by osmometry, which corresponds to osmotic pressure and can be rapidly obtained. For comparison, a draw solution including DMCA-H^+ was also investigated. In the case of DMCA at full concentration, it will start degassing at a temperature as low as 25° C., requiring viscosity measurements to be made at 15° C. However, DMCA requires nearly reflux conditions to fully remove the CO2.

[5] = Viscosity and density of the CHP-H+ draw solution; assay type: physicochemical
Procedure: as §1
DI water (229.7 g) and CHP (221.2 g, 1.32 mol) were placed in a bottle equipped with a gas diffuser and exposed to a steady stream of carbon dioxide for 3 hours while being stirred with a magnetic stir bar. The resulting product was a clear homogeneous solution with a mass of 491.4 g, a solution viscosity of 44.0 cP at 15.0° C., and a density of 1.09 g/ml at 21° C. After exposure to the carbon dioxide, the solution contained CHP-H^+ (i.e., CHP in its polar form).

[6] = at 25° C.; cited from earlier work

## [Cl-].[Na+] [NaCl, reference compound]
[1]
  osmotic pressure: 370 atm
[2]
  water flux (initial flux): 10 kg/m^2 hr

## CN(C)C1CCCCC1.O=C(O)O [DMCA-H^+, dimethylcyclohexylammonium bicarbonate]
[3]
  maximum osmotic pressure (projected): ~835 atm
[4]; 70° C., after 4-6 hours
  osmolality after degassing: 2.4 Osm/Kg
[4]; 95° C., after 6.5 hours
  osmolality after degassing: 0.2 Osm/Kg

## C1CCC(N2CCCCC2)CC1 [CHP-H^+]
[5]; draw solution of Example 1, at 15.0° C.
  solution viscosity: 44.0 cP
[5]; draw solution of Example 1, at 21° C.
  density: 1.09 g/mL
[3]
  maximum osmotic pressure (projected): greater than 500 atm
[2]
  water flux (initial flux): 10 kg/m^2 hr
[4]; 70° C., after extended treatment
  osmolality after degassing: 0.2 Osm/Kg
[4]; 70° C., within 3 hours
  osmolality after degassing: 0.6 Osm/Kg

## CN(C)C1CCCCC1 [DMCA, N,N-dimethylcyclohexylamine]
[6]
  vapor pressure: about 2.2 mm Hg
[4]
  temperature needed to degas: about 95 °C
[4]; full concentration
  temperature at which degassing starts: 25 °C

## C1CCC(N2CCCCC2)CC1 [CHP, 1-cyclohexylpiperidine]
[6]
  vapor pressure: about 0.1 mm Hg
[3]
  amine:carbonic acid ratio: 1.00
  maximum osmotic pressure (projected): 536 atm and > 500 atm
[3]; by osmometry, FIG. 4
  maximum osmotic pressure: greater than 250 atm
[4]
  temperature needed to degas: about 70 °C
